Reference: the NIST ThermoML archive (doi:10.1021/je900414p)

Assay: xn = mol fraction of the nth substance listed
Settings: Liquid

CCOS(=O)(=O)[O-].CCn1cc[n+](C)c1 [1-ethyl-3-methylimidazolium ethyl sulfate] + CCO
mass density [kg/m3]
Settings	100 kPa	2500 kPa	5000 kPa	10000 kPa	15000 kPa	20000 kPa	25000 kPa	30000 kPa	35000 kPa
283.15 K, x1 = 0.05056	868.1	870	871.83	875.33	878.74	882.02	885.17	888.22	891.19
283.15 K, x1 = 0.103	925.77	927.45	929.13	932.41	935.57	938.63	941.59	944.47	947.26
283.15 K, x1 = 0.1247	946.96	948.54	950.16	953.34	956.4	959.38	962.25	965.06	967.8
283.15 K, x1 = 0.2126	1015.49	1016.98	1018.48	1021.37	1024.17	1026.89	1029.52	1032.11	1034.62
283.15 K, x1 = 0.2919	1063.41	1064.67	1066.03	1068.69	1071.27	1073.82	1076.29	1078.72	1081.08
283.15 K, x1 = 0.3185	1076.89	1078.19	1079.51	1082.11	1084.66	1087.15	1089.57	1091.95	1094.27
283.15 K, x1 = 0.4198	1120.15	1121.36	1122.61	1125.05	1127.44	1129.77	1132.05	1134.29	1136.48
283.15 K, x1 = 0.4847	1142.52	1143.68	1144.88	1147.23	1149.51	1151.78	1153.99	1156.16	1158.29
283.15 K, x1 = 0.5713	1167.9	1169.02	1170.16	1172.41	1174.61	1176.78	1178.91	1181.01	1183.08
283.15 K, x1 = 0.6827	1194.68	1195.76	1196.85	1199	1201.12	1203.21	1205.24	1207.27	1209.25
283.15 K, x1 = 0.7919	1216.13	1217.15	1218.19	1220.26	1222.32	1224.34	1226.31	1228.28	1230.19
283.15 K, x1 = 0.9317	1237.97	1238.92	1239.94	1241.93	1243.92	1245.88	1247.81	1249.69	1251.56
293.15 K, x1 = 0.05056	860.03	861.91	863.83	867.52	871.06	874.47	877.74	880.91	883.98
293.15 K, x1 = 0.103	917.84	919.6	921.37	924.78	928.08	931.25	934.32	937.28	940.18
293.15 K, x1 = 0.1247	939.1	940.76	942.46	945.77	948.96	952.04	955.03	957.93	960.74
293.15 K, x1 = 0.2126	1007.62	1009.27	1010.81	1013.8	1016.71	1019.53	1022.26	1024.93	1027.53
293.15 K, x1 = 0.2919	1055.3	1056.61	1058.04	1060.8	1063.5	1066.12	1068.67	1071.18	1073.62
293.15 K, x1 = 0.3185	1069.32	1070.62	1071.98	1074.68	1077.32	1079.89	1082.37	1084.82	1087.22
293.15 K, x1 = 0.4198	1112.7	1113.96	1115.24	1117.75	1120.22	1122.63	1124.97	1127.27	1129.54
293.15 K, x1 = 0.4847	1135.13	1136.31	1137.55	1139.97	1142.34	1144.68	1146.94	1149.19	1151.37
293.15 K, x1 = 0.5713	1160.59	1161.75	1162.92	1165.25	1167.52	1169.75	1171.93	1174.07	1176.19
293.15 K, x1 = 0.6827	1187.41	1188.51	1189.64	1191.86	1194.04	1196.18	1198.27	1200.33	1202.37
293.15 K, x1 = 0.7919	1208.95	1210	1211.08	1213.21	1215.31	1217.38	1219.4	1221.4	1223.38
293.15 K, x1 = 0.9317	1230.93	1231.9	1232.97	1235.05	1237.08	1239.09	1241.05	1242.97	1244.9
298.15 K, x1 = 0.05056	855.98	857.88	859.83	863.62	867.22	870.7	874.05	877.28	880.4
298.15 K, x1 = 0.103	913.93	915.61	917.4	920.89	924.24	927.48	930.6	933.63	936.57
298.15 K, x1 = 0.1247	935.16	936.81	938.54	941.91	945.16	948.3	951.34	954.29	957.15
298.15 K, x1 = 0.2126	1003.9	1005.45	1007.01	1010.07	1013.02	1015.88	1018.67	1021.38	1024.03
298.15 K, x1 = 0.2919	1052	1052.97	1054.41	1057.22	1059.95	1062.62	1065.22	1067.75	1070.23
298.15 K, x1 = 0.3185	1065.62	1066.9	1068.3	1071.05	1073.73	1076.33	1078.88	1081.37	1083.79
298.15 K, x1 = 0.4198	1109.11	1110.35	1111.65	1114.21	1116.72	1119.15	1121.54	1123.89	1126.17
298.15 K, x1 = 0.4847	1131.56	1132.76	1133.99	1136.46	1138.86	1141.21	1143.53	1145.8	1148.02
298.15 K, x1 = 0.5713	1157.07	1158.2	1159.39	1161.74	1164.05	1166.31	1168.52	1170.7	1172.85
298.15 K, x1 = 0.6827	1183.93	1185.01	1186.16	1188.41	1190.6	1192.77	1194.89	1197	1199.05
298.15 K, x1 = 0.7919	1205.61	1206.51	1207.59	1209.76	1211.88	1213.98	1216.03	1218.05	1220.04
298.15 K, x1 = 0.9317	1227.5	1228.53	1229.57	1231.66	1233.72	1235.74	1237.73	1239.69	1241.63
303.15 K, x1 = 0.05056	851.9	853.85	855.87	859.72	863.43	866.98	870.39	873.69	876.89
303.15 K, x1 = 0.103	910.06	911.7	913.54	917.1	920.52	923.82	927	930.09	933.1
303.15 K, x1 = 0.1247	931.25	932.93	934.69	938.12	941.44	944.64	947.74	950.74	953.67
303.15 K, x1 = 0.2126	1000.1	1001.68	1003.26	1006.36	1009.37	1012.29	1015.12	1017.88	1020.58
303.15 K, x1 = 0.2919	1048.63	1049.46	1050.92	1053.74	1056.51	1059.18	1061.79	1064.33	1066.82
303.15 K, x1 = 0.3185	1061.99	1063.29	1064.7	1067.49	1070.22	1072.86	1075.44	1077.96	1080.42
303.15 K, x1 = 0.4198	1105.54	1106.82	1108.14	1110.73	1113.28	1115.76	1118.18	1120.55	1122.89
303.15 K, x1 = 0.4847	1128.01	1129.22	1130.5	1132.99	1135.43	1137.83	1140.16	1142.46	1144.71
303.15 K, x1 = 0.5713	1153.59	1154.71	1155.92	1158.31	1160.66	1162.94	1165.19	1167.4	1169.59
303.15 K, x1 = 0.6827	1180.46	1181.59	1182.73	1185	1187.24	1189.45	1191.6	1193.74	1195.84
303.15 K, x1 = 0.7919	1202.24	1203.1	1204.19	1206.38	1208.54	1210.64	1212.73	1214.77	1216.82
303.15 K, x1 = 0.9317	1224.05	1225.06	1226.12	1228.23	1230.32	1232.36	1234.37	1236.36	1238.34
